Data on seven compounds can be found in publication PMC6843816, “Angiotensin Converting Enzyme (ACE)-Peptide Interactions: Inhibition Kinetics, In Silico Molecular Docking and Stability Study of Three Novel Peptides Generated from Palm Kernel Cake Proteins” (Biomolecules, 2019).

Data set [1] has as its target T1, angiotensin-converting enzyme (ACE) (Oryctolagus cuniculus, UniProt P12822).
T1 construct: Angiotensin-I-converting enzyme (rabbit lung); purchased Sigma Chemical Co., (St Louis, MO, USA); host or cells: rabbit lung tissue
T1 sequence (P12822 34-1310): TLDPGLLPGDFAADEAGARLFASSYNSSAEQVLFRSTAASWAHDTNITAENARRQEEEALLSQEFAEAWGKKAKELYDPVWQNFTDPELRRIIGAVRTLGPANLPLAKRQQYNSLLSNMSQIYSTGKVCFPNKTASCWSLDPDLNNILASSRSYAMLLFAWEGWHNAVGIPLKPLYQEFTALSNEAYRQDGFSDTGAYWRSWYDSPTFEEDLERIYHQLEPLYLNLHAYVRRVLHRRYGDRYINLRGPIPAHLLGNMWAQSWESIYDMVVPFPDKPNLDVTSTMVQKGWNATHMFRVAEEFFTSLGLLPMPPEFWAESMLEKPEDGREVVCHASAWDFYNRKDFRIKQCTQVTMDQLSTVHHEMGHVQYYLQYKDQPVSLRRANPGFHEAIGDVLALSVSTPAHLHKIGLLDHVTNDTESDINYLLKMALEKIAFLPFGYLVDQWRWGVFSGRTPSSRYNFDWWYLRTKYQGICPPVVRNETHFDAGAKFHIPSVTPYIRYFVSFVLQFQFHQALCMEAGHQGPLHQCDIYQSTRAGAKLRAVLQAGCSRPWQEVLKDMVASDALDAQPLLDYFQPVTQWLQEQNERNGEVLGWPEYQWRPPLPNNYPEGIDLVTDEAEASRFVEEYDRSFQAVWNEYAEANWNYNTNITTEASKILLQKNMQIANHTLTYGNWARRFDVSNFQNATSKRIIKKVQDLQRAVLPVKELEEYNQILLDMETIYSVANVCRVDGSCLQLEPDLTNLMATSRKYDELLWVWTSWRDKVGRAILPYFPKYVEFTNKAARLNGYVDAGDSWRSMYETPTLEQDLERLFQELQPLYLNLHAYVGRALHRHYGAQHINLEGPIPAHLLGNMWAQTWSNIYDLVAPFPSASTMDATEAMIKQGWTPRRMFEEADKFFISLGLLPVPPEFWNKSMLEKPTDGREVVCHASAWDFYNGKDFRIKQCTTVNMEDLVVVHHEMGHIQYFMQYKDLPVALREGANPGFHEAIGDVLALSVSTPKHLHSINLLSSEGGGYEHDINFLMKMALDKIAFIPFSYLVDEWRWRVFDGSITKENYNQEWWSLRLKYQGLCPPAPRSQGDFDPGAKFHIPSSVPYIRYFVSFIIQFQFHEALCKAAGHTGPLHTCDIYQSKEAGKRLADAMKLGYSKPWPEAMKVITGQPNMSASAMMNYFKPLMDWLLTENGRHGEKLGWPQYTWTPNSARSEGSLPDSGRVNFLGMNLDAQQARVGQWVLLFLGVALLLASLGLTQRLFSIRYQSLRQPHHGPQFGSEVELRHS
As to the kind of experiment: Peptide stability study: hydrolysis of peptides by ACE, RP-HPLC. Type of data set: in vitro ADME, rabbit. As to conditions: 37 °C, peptide 4 mM; for metabolised at 0.5 h, 2.4 mM / metabolised at 1 h, 2.4 mM / metabolised at 2 h, 2.4 mM / metabolised at 3 h, 2.4 mM: rabbit, isolated angiotensin-converting enzyme (ACE), read-out: Cleavage (%); for metabolised at 1 h, 2.4 mM: incubation with ACE 1 h; for metabolised at 2 h, 2.4 mM: incubation with ACE 2 h. On the procedure:
Peptide stability study was carried out using the method described by Forghani et al. and Yang, Marczak, Yokoo, Usui and Yoshikawa with modifications. Each peptide solution (225 µL), at a concentration of 4 mM, was incubated with 150 µl of ACE (100 mU/mL) at 37 °C and incubation time of 0, 0.5, 1, 2 and 3 h. Peptide samples were withdrawn at their respective incubation time separately and kept in ice prior to analysis by HPLC. A 20-µL sample was loaded onto a Hypersil GOLD C18 column (4.6 × 250 mm) attached to a LC 20AT apparatus (Shimadzu Co., Kyoto, Japan). The column was conditioned with eluent A (0.1% TFA in DW) and eluted with 100% eluent A from 0 to 10 min. The peptides were eluted with eluent B (0.1% TFA in CH3CN) with a gradient elution of 0–100% for 10–50 min. The absorbance was read at 215 nm.

The target of data set [2] is T1, angiotensin-converting enzyme (ACE). Description: Kinetics study of ACE inhibition (Michaelis-Menten and Lineweaver-Burk plots, HHL substrate). Type of data set: biochemical, rabbit. As to conditions: from plot of 1/Vmax against inhibitor concentration; read-out: Kiu (mM) (enzyme-inhibitor dissociation constant). On the procedure:
Mode of enzyme inhibition, maximum initial velocity (Vmax), Michaelis-Menten constant (Km), inhibitory constant (Ki) and catalytic efficiency were determined using Michaeles-Menten and Lineweaver-Burk plots of 1/v versus 1/[S].
Enzyme activity was shown as nmol hippuric acid produced per min of enzymatic reaction. Michaelis-Menten and Lineweaver-Burk plots were created using GRAPHPAD PRISM 6.07 (GraphPad, Software Inc., San Diego, CA, USA) software. Vmax and Km were calculated using the same software. Kiu was calculated from the plot of 1/Vmax against inhibitor concentration at the intercept on the inhibitor concentration axis).

The target is the same in data set [3]. As to the kind of experiment: ACE-inhibitory capacity of peptides with and without pre-incubation with ACE; IC50. Type of data set: biochemical, rabbit. As to conditions: for IC50: unit given, not in Table 5, read-out: ACE Inhibition (IC50); for ACE-Inhibitory Capacity (%) Without Pre-Incubation: without pre-incubation with ACE.
For a further data set, the target named is ACE. The following applies: read-out: Kiu, cited from earlier work.
The mark [4] stands for this setting: peptides generated from Stichopus horrens.

Several values for one entry are separate records, joined by “and”; a condition that tells them apart may be missing. Identical values can stand only once. Like-named read-outs stand apart in the source and are kept apart here. Peptide text beside a SMILES is read from it.

With `CC(C)C[C@H](NC(=O)[C@H](CC(C)C)NC(=O)[C@H](C)NC(=O)[C@H](Cc1ccc(O)cc1)NC(=O)[C@H](Cc1c[nH]cn1)NC(=O)CNC(=O)[C@H](C)NC(=O)CNC(=O)[C@H](CCC(=O)O)NC(=O)[C@H](CCC(N)=O)NC(=O)[C@@H](NC(=O)CN)C(C)C)C(=O)O` [GVQEGAGHYALL] (H-GVQEGAGHYALL-OH; N-terminus and C-terminus assumed), in data set [1] (incubation with ACE 0.5 h), the “Cleavage (%)” value is 46% and the metabolised at 0.5 h, 2.4 mM was 46 ± 1.5%. In data set [1] (incubation with ACE 3 h), the “Cleavage (%)” value stood at 97% and the metabolised at 3 h, 2.4 mM stood at 97 ± 3.4%. In addition, in data set [1], the metabolised at 1 h, 2.4 mM turned out to be 65 ± 2.6% and the metabolised at 2 h, 2.4 mM was determined as 86 ± 3.1%. For the same compound, the Ki in data set [2] is 3.18 mM. Also, in data set [3], the IC50 stood at 239 µM, the “ACE-Inhibitory Capacity (%) With Pre-Incubation” value was determined as 75 ± 2.11% and the “ACE-Inhibitory Capacity (%) Without Pre-Incubation” value is 70 ± 1.15%.

On to `C[C@H](NC(=O)[C@@H](N)Cc1c[nH]c2ccccc12)C(=O)N[C@@H](Cc1ccccc1)C(=O)N[C@@H](CO)C(=O)O` [WAFS] (H-WAFS-OH; N-terminus and C-terminus assumed), for which, in data set [1] (incubation with ACE 0.5 h), the “Cleavage (%)” value is 43% and the metabolised at 0.5 h, 2.4 mM stood at 43 ± 2%. In data set [1] (incubation with ACE 3 h), the “Cleavage (%)” value is given as 68% and the metabolised at 3 h, 2.4 mM turned out to be 68 ± 3.4%. Moreover, in data set [1], the metabolised at 1 h, 2.4 mM came to 42 ± 1.6% and the metabolised at 2 h, 2.4 mM turned out to be 63 ± 3%. For the same compound, the Ki in data set [2] is 2 mM. In data set [3], the IC50 was found to be 202 µM, the “ACE-Inhibitory Capacity (%) With Pre-Incubation” value is given as 56 ± 1.34% and the “ACE-Inhibitory Capacity (%) Without Pre-Incubation” value came to 55 ± 1.81%.

As for `CC(C)C[C@H](NC(=O)[C@H](CC(C)C)NC(=O)[C@H](CC(C)C)NC(=O)[C@@H](N)Cc1ccc(O)cc1)C(=O)N[C@@H](CCCCN)C(=O)O` [YLLLK] (H-YLLLK-OH; N-terminus and C-terminus assumed), in data set [1] (incubation with ACE 0.5 h), the “Cleavage (%)” value is recorded as 91.7% and the metabolised at 0.5 h, 2.4 mM turned out to be 92 ± 2.8%. In data set [1] (incubation with ACE 3 h), the “Cleavage (%)” value was 94% and 94.3%; the metabolised at 3 h, 2.4 mM came to 94 ± 2.7%. Besides, in data set [1], the metabolised at 1 h, 2.4 mM is 93 ± 1.9% and the metabolised at 2 h, 2.4 mM worked out at 94 ± 3%. Besides, in data set [3], the IC50 is 47 µM, the “ACE-Inhibitory Capacity (%) With Pre-Incubation” value was found to be 80 ± 2.04% and the “ACE-Inhibitory Capacity (%) Without Pre-Incubation” value is 100 ± 2.99%.

In the case of CRQNTLGHNTQTSIAQ, the Ki on ACE (setting [4]) was 210 µM.

For the compound SAAVGSP, the Ki at ACE (setting [4]) is 1570 µM.

Take VSRHFASYAN: the Ki at ACE (setting [4]) was 610 µM.

For the compound WVYY, on ACE (ref Udenigwe, et al. 31), the Ki was 60 µM.
